In brackets after ≈: the same amount, converted by molar mass. Entries after “also recorded” stand apart in the source; their conditions may differ. Where two headings read alike, the source gives them in different places.
Legend:
S. aureus ATCC 29213 = test: MIC determination; type: cell-based, Staphylococcus aureus; conditions: for antibacterial activity in words (SAR, ring A derivatives): S. aureus ATCC 29213, compounds of Schemes 3-4; for S. aureus ATCC 29213 MIC: Table 3.1, compounds of Schemes 2-4
E. faecium NCTC 7171 = test: MIC determination; type: cell-based, Enterococcus faecium; conditions: for MIC: Enterococcus faecium
[1] = Staphylococcus aureus, ATCC29213, Table 3.1 and SAR text, compounds of Schemes 2-4, read-out: S. aureus ATCC 29213 MIC
[2] = NCTC7171, Table 3.1, compounds of Schemes 2-4, read-out: E. faecium NCTC 7171 MIC
[3] = Staphylococcus aureus, ATCC29213, read-out: S. aureus ATCC 29213 MIC
[4] = NCTC7171, read-out: E. faecium NCTC 7171 MIC
[5] = S. aureus ATCC29213, second numbering, compounds of Scheme 6
[6] = Table 3.1, compounds of Schemes 2-4

SMILES	MIC (S. aureus ATCC 29213; [1])	MIC (E. faecium NCTC 7171; [2])	other results
Brc1c[nH]nc1-c1nc(-c2ccc(Oc3ccccc3)cc2)no1 [61a]	1 µg/mL (≈ 2.61 µM)	16 µg/mL (≈ 41.8 µM)	
Ic1c[nH]nc1-c1nc(-c2ccc(Oc3ccccc3)cc2)no1 [62a]	1 µg/mL (≈ 2.32 µM)	32 µg/mL (≈ 74.4 µM)	
Oc1ccc(-c2nc(-c3ccc(Oc4ccccc4)cc3)no2)cc1 [Compound 57a]	1 µg/mL (≈ 3.03 µM)	1 µg/mL (≈ 3.03 µM)	
Oc1ccc(-c2nc(-c3ccc(Oc4ccc(F)cc4)cc3)no2)cc1 [Compound 57c]	1 µg/mL (≈ 2.87 µM)	1 µg/mL (≈ 2.87 µM)	
Nc1ccc(-c2nc(-c3ccc(Oc4ccccc4)cc3)no2)cc1 [Compound 58a]			MIC (S. aureus ATCC 29213; [3]): 4 µg/mL (≈ 12.1 µM); MIC (E. faecium NCTC 7171; [4]): 2 µg/mL (≈ 6.07 µM)
Nc1ccc(-c2nc(-c3ccc(Oc4ccc(C(F)(F)F)cc4)cc3)no2)cc1 [Compound 58b]	1 µg/mL (≈ 2.52 µM)	2 µg/mL (≈ 5.03 µM)	
Nc1ccc(-c2nc(-c3ccc(Oc4ccc(F)cc4)cc3)no2)cc1 [Compound 58c]	> 128 µg/mL	> 128 µg/mL	antibacterial activity in words (SAR, ring A derivatives) (S. aureus ATCC 29213): no antibiotic activity; also recorded: inactive
Clc1c[nH]nc1-c1nc(-c2ccc(Oc3ccccc3)cc2)no1 [Compound 60a]			MIC (S. aureus ATCC 29213; [5]): 8 µg/mL (≈ 23.6 µM); MIC (S. aureus ATCC 29213; [3]): 1 µg/mL (≈ 2.95 µM); MIC (E. faecium NCTC 7171; [4]): > 128 µg/mL
FC(F)(F)c1ccc(Oc2ccc(-c3noc(-c4n[nH]cc4Br)n3)cc2)cc1 [Compound 61b]	1 µg/mL (≈ 2.22 µM)	> 128 µg/mL	
FC(F)(F)c1ccc(Oc2ccc(-c3noc(-c4n[nH]cc4I)n3)cc2)cc1 [Compound 62b]	2 µg/mL (≈ 4.01 µM)	32 µg/mL (≈ 64.2 µM)	
O=[N+]([O-])c1c[nH]nc1-c1nc(-c2ccc(Oc3ccc(C(F)(F)F)cc3)cc2)no1 [Compound 63b, 5-(4-Nitro-1H-pyrazole-3-yl)-3-(4-(4-(trifluoromethyl)phenoxy)phenyl)-1,2,4-oxadiazole]	2 µg/mL (≈ 4.79 µM)	2 µg/mL (≈ 4.79 µM)	
O=[N+]([O-])c1c[nH]nc1-c1nc(-c2ccc(Oc3ccc(F)cc3)cc2)no1 [Compound 63c]	1 µg/mL (≈ 2.72 µM)	4 µg/mL (≈ 10.9 µM)	
Nc1c[nH]nc1-c1nc(-c2ccc(Oc3ccccc3)cc2)no1 [Compound 64a]			antibacterial activity in words (SAR, C/D ring derivatives) (S. aureus ATCC 29213; [5]): retained activity; MIC (S. aureus ATCC 29213; [3]): 16 µg/mL (≈ 50.1 µM); MIC (E. faecium NCTC 7171; [4]): 32 µg/mL (≈ 100 µM)
Nc1c[nH]nc1-c1nc(-c2ccc(Oc3ccc(C(F)(F)F)cc3)cc2)no1 [Compound 64b, 3-(3-(4-(4-(Trifluoromethyl)phenoxy)phenyl)-1,2,4-oxadiazol-5-yl)-1H-pyrazol-4-amine]	4 µg/mL (≈ 10.3 µM)	16 µg/mL (≈ 41.3 µM)	
Nc1c[nH]nc1-c1nc(-c2ccc(Oc3ccc(F)cc3)cc2)no1 [Compound 64c]	16 µg/mL (≈ 47.4 µM)	32 µg/mL (≈ 94.9 µM)	
CC(C)Nc1c[nH]nc1-c1nc(-c2ccc(Oc3ccccc3)cc2)no1 [Compound 65a]			antibacterial activity in words (SAR, C/D ring derivatives) (S. aureus ATCC 29213; [5]): did not alter the activity; MIC (S. aureus ATCC 29213; [3]): 0.5 µg/mL (≈ 1.38 µM); MIC (E. faecium NCTC 7171; [4]): > 128 µg/mL
N#Cc1c[nH]nc1-c1nc(-c2ccc(Oc3ccc(C(F)(F)F)cc3)cc2)no1 [Compound 67b]	2 µg/mL (≈ 5.03 µM)	> 128 µg/mL	antibacterial activity in words (SAR, ring A derivatives) (S. aureus ATCC 29213): good activity
Oc1ccc(-c2nc(-c3ccc(Oc4ccc(C(F)(F)F)cc4)cc3)no2)cc1O [Compound 69b]	2 µg/mL (≈ 4.83 µM)	128 µg/mL (≈ 309 µM)	
Oc1ccc(-c2nc(-c3ccc(Oc4ccc(F)cc4)cc3)no2)cc1O [Compound 69c]	4 µg/mL (≈ 11 µM)	8 µg/mL (≈ 22 µM)	
Oc1ccc(-c2nc(-c3ccc(Oc4ccccc4)cc3)no2)cc1F [Compound 70a]	4 µg/mL (≈ 11.5 µM)	4 µg/mL (≈ 11.5 µM)	
Oc1ccc(-c2nc(-c3ccc(Oc4ccc(C(F)(F)F)cc4)cc3)no2)cc1F [Compound 70b]			S. aureus ATCC 29213 MIC (S. aureus ATCC 29213): 2 µg/mL; E. faecium NCTC 7171 MIC (E. faecium NCTC 7171; [6]): 2 µg/mL
Oc1ccc(-c2nc(-c3ccc(Oc4ccc(F)cc4)cc3)no2)cc1F [Compound 70c]	2 µg/mL (≈ 5.46 µM)	2 µg/mL (≈ 5.46 µM)	
Oc1c(F)cc(-c2nc(-c3ccc(Oc4ccc(C(F)(F)F)cc4)cc3)no2)cc1F [Compound 71b]			S. aureus ATCC 29213 MIC (S. aureus ATCC 29213): 2 µg/mL; E. faecium NCTC 7171 MIC (E. faecium NCTC 7171; [6]): 2 µg/mL
Oc1c(F)cc(-c2nc(-c3ccc(Oc4ccc(F)cc4)cc3)no2)cc1F [Compound 71c]	8 µg/mL (≈ 20.8 µM)	4 µg/mL (≈ 10.4 µM)	

SMILES	MIC (S. aureus ATCC 29213; [1])	MIC (E. faecium NCTC 7171; [2])	other results
Nc1ccc(-c2nc(-c3ccc(Oc4ccccc4)cc3)no2)cc1F [Compound 72a]			antibacterial activity in words (SAR, C/D ring derivatives) (S. aureus ATCC 29213; [5]): inactive; MIC (S. aureus ATCC 29213; [3]): > 128 µg/mL; MIC (E. faecium NCTC 7171; [4]): > 32 µg/mL
Nc1ccc(-c2nc(-c3ccc(Oc4ccc(C(F)(F)F)cc4)cc3)no2)cc1F [Compound 72b]	2 µg/mL (≈ 4.82 µM)	2 µg/mL (≈ 4.82 µM)	
Oc1c(F)cc(-c2nc(-c3ccc(Oc4ccc(C(F)(F)F)cc4)cc3)no2)cc1F [Compound 73b]	4 µg/mL (≈ 9.21 µM)	4 µg/mL (≈ 9.21 µM)	
Oc1ccc(Cc2nc(-c3ccc(Oc4ccccc4)cc3)no2)cc1 [Compound 74a]		8 µg/mL (≈ 23.2 µM)	
c1ccc(Oc2ccc(-c3noc(-c4ccc5[nH]ccc5c4)n3)cc2)cc1 [Compound 75a]	2 µg/mL (≈ 5.66 µM)	2 µg/mL (≈ 5.66 µM)	
Fc1ccc(Oc2ccc(-c3noc(-c4ccc5[nH]ccc5c4)n3)cc2)cc1 [Compound 75c]	2 µg/mL (≈ 5.39 µM)	2 µg/mL (≈ 5.39 µM)	
Fc1ccc(Oc2ccc(-c3noc(-c4cnc[nH]4)n3)cc2)cc1 [Compound 76c]	> 128 µg/mL	128 µg/mL (≈ 397 µM)	antibacterial activity in words (SAR, ring A derivatives) (S. aureus ATCC 29213): no activity
O=[N+]([O-])c1cc(-c2nc(-c3ccc(Oc4ccc(C(F)(F)F)cc4)cc3)no2)cnc1O [Compound 77b]	8 µg/mL (≈ 18 µM)	4 µg/mL (≈ 9 µM)	
O=[N+]([O-])c1cc(-c2nc(-c3ccc(Oc4ccc(F)cc4)cc3)no2)cnc1O [Compound 77c]	8 µg/mL (≈ 20.3 µM)	4 µg/mL (≈ 10.1 µM)	
O=[N+]([O-])c1c[nH]c(-c2nc(-c3ccc(Oc4ccc(C(F)(F)F)cc4)cc3)no2)c1 [Compound 78b]	8 µg/mL (≈ 19.2 µM)	64 µg/mL (≈ 154 µM)	antibacterial activity in words (SAR, ring A derivatives) (S. aureus ATCC 29213): retained good activity
O=[N+]([O-])c1c[nH]c(-c2nc(-c3ccc(Oc4ccc(F)cc4)cc3)no2)c1 [Compound 78c]	> 128 µg/mL	128 µg/mL (≈ 349 µM)	antibacterial activity in words (SAR, ring A derivatives) (S. aureus ATCC 29213): No activity
C=CCOc1cc(N)ncc1-c1nc(-c2ccc(Oc3ccccc3)cc2)no1 [Compound 79a]	8 µg/mL (≈ 20.7 µM)	> 128 µg/mL	
Fc1ccc(-c2nc(-c3ccc(Oc4ccccc4)cc3)no2)cc1 [Compound 80a]	> 1000 µg/mL		
Fc1ccc(-c2nc(-c3ccc(Oc4ccc(C(F)(F)F)cc4)cc3)no2)cc1 [Compound 80b]	> 1200 µg/mL		
FC(F)(F)c1ccc(Oc2ccc(-c3noc(-c4ccc(Br)cc4)n3)cc2)cc1 [Compound 81b]	> 1000 µg/mL		
CC(=O)Nc1ccc(-c2nc(-c3ccc(Oc4ccc(C(F)(F)F)cc4)cc3)no2)cc1 [Compound 83b]	256 µg/mL (≈ 583 µM)		
Cl.c1ccc(Oc2ccc(-c3noc(C4CCNCC4)n3)cc2)cc1 [Compound 128a]			E. faecium NCTC 7171 MIC (E. faecium NCTC 7171; [6]): 16 µg/mL
Cl.c1ccc(Oc2ccc(-c3noc(C4CCCN4)n3)cc2)cc1 (stereo not shown) [Compound 132a]			E. faecium NCTC 7171 MIC (E. faecium NCTC 7171; [6]): 64 µg/mL
O=C1C[C@H](c2nc(-c3ccc(Oc4ccc(C(F)(F)F)cc4)cc3)no2)CN1 [Compound 133b]		> 128 µg/mL	
O=C1C[C@@H](c2nc(-c3ccc(Oc4ccc(C(F)(F)F)cc4)cc3)no2)CN1 [Compound 134b]		> 128 µg/mL	
O=c1cc(-c2nc(-c3ccc(Oc4ccc(C(F)(F)F)cc4)cc3)no2)[nH]c(=O)[nH]1 [Compound 135b]		> 128 µg/mL	
Cl.NC(Cc1ccccc1)c1nc(-c2ccc(Oc3ccccc3)cc2)no1 (stereo not shown) [Compound 136a]			E. faecium NCTC 7171 MIC (E. faecium NCTC 7171; [6]): >128 µg/mL
Oc1ccc(-c2nc(-c3ccc(OC4CCCC4)cc3)no2)cc1 [DR-03-235]			MIC S. aureus ATCC 29213 MH (S. aureus ATCC 29213; Mueller Hinton broth, Table 2.2, in µg/mL): 0.5-1

From patent US10662164B2, “Non-beta lactam antibiotics” (University of Notre Dame du Lac, priority 2014, dated 2020)
